Laboratory results taken from PMC5750218, “Protein-inspired antibiotics active against vancomycin- and daptomycin-resistant bacteria” (Nature Communications, 2018).
In brackets after ≈: the same amount, converted by molar mass. Like-named read-outs stand apart in the source and are kept apart here.

What was measured:
[1] = system: S. aureus ATCC 43300 MRSA; assay: microbe, parasite or virus in culture; assay type: cell-based, Staphylococcus aureus; settings: Staphylococcus aureus, 24 h
Experimental: (§1) The compounds, along with standard antibiotics were serially diluted twofold across the wells of 96-well non-binding surface (NBS) polystyrene plates (Corning 3641). […] Standards ranged from 64 to 0.03 µg mL^−1 and compounds from 8 to 0.003 µg mL^−1 with final assay volumes of 100 µL per well. Gram-positive bacteria were cultured in Mueller Hinton broth (MHB) (Bactolaboratories, Cat. no. 211443) at 37 °C overnight. A sample of each culture was then diluted 40-fold in fresh MHB and incubated at 37 °C for 2–3 h. The resultant mid-log phase cultures were added to the compound-containing 96-well plates to give a final cell density of 5 × 10^5 colony forming unit (CFU) mL^−1. All the plates were covered and incubated at 37 °C for 24 h. MICs were the lowest concentration showing no visible growth.

S. pneumoniae ATCC 33400 = assay: microbe, parasite or virus in culture; assay type: cell-based, Streptococcus pneumoniae; settings: Streptococcus pneumoniae, ATCC33400, 24 h
Experimental: as §1

[2] = system: S. pneumoniae ATCC 700677 MDR; assay: microbe, parasite or virus in culture; assay type: cell-based, Streptococcus pneumoniae; settings: Streptococcus pneumoniae, ATCC700677, 24 h
Experimental: as §1

[3] = system: bioluminescent MSSA Xen-29; assay: Bioluminescence IP infection in vivo model (neutropenic mice); design: species or system Staphylococcus aureus; settings: SC: 200 mg kg^−1 vancomycin, 50 mg kg^−1 daptomycin, 25 mg kg^−1 19 or 24
Experimental: Performed at the University of Queensland, following similar previous literature procedures. Xen-29 (Caliper LifeSciences), a methicillin-sensitive S. aureus (MSSA) strain which contains a copy of the modified luxABCDE operon of Photorhabdus luminescens was taken from the storage at −80 °C and freshly seeded on agar plates for overnight growth at 37 °C. From the overnight culture preparation, a single colony (tested for bioluminescence) was diluted into 10 mL of MHB and incubated overnight at 37 °C. A mid log-phase subculture was obtained by adding 100 μL of overnight subculture in 10 mL MHB and incubated for a further 2–3 h. Finally, the OD600 value of the bacterial suspension was determined and the colony forming units per millilitre (CFU mL^−1) was extrapolated. The suspension was then diluted out accordingly in order to achieve a 2.5 × 10^8 CFU mL^−1 solution (2.5 × 10^7 CFU in 100 μL). […] Mice were monitored for signs of normal behaviour (i.e. grooming, eating, drinking, sleeping and alertness) during and following dosing. […] Xen-29 colonies were then counted, with the CFU mL^−1 blood calculated. […] Luminescent images were quantified with the IVIS Living Image software where the total flux (number of photons/second) was calculated by a user defined region of interest (ROI) covering the infection sites.

in vitro = settings: human, 50% human plasma (pooled, sodium heparin) in PBS, pH 7.4
Experimental: Briefly, test compounds (20 μM) were prepared from a 0.2 mM H2O stock solution (40 μL in 400 μL assay volume) except eucatropine, which was 300 μg mL^−1 in 100% DMSO (10 μL in 400 μL assay volume equivalent to 23 μM). The precipitating solution was prepared by adding 5 μL of 10 mM carbutamide in DMSO to 100 mL acetonitrile (final concentration: 135.5 ng mL^−1 or 0.5 μM carbutamide). The human plasma sample (pooled normal human plasma sodium heparin anticoagulant, 2 µL, Cat No.: [sequence], BioReclamation) and phosphate-buffer saline (PBS, pH 7.4 isotonic) were pre-heated at 37 °C for 30 min. 40 μL of test compounds (0.2 mM) were added to protein-low binding Eppendorf tubes, 160 μL of buffer was added, and the mixture was vortexed. For eucatropine, 10 μL of eucatropine (300 μg mL^−1) was added to a protein-low binding Eppendorf tube, 190 μL of buffer was added, and the mixture was vortexed. In each case, 200 μL of plasma was added and the resultant mixture vortexed. For the initial time point (reaction time t = 0 h), 50 μL of sample was immediately transferred into a protein-low binding Eppendorf tube and quenched with 150 μL of the ice-cold precipitating solution, followed by vortexing and subsequent storage at 4 °C. For the remaining time points, the plasma solution was incubated and shaken (150 rpm) at 37 °C. 50 μL aliquots were collected at time points of 0, 1, 3, 6 and 24 h and quenched with 150 μL the ice-cold precipitating solution. All samples were placed in a 4 °C fridge for 30 min then centrifuged at 14,000 × g for 8 min at 4 °C. The supernatant (100 μL) was transferred to a glass vial insert and stored at 4 °C until LC-MS/MS analysis. The percentage of test compounds remaining at the individual time points relative to sample at time point 0 h were reported.

With CN[C@H](CC(C)C)C(=O)N[C@H]1C(=O)N[C@@H](CC(N)=O)C(=O)N[C@H]2C(=O)N[C@H]3C(=O)N[C@H](C(=O)N[C@H](C(=O)O)c4cc(O)cc(O)c4-c4cc3ccc4O)[C@H](O)c3ccc(c(Cl)c3)Oc3cc2cc(c3O[C@@H]2O[C@H](CO)[C@@H](O)[C@H](O)[C@H]2O[C@H]2C[C@](C)(N)[C@H](O)[C@H](C)O2)Oc2ccc(cc2Cl)[C@H]1O [Compound 1, Vancomycin] the MIC ([1]; read-out: MIC S. aureus ATCC 43300 MRSA, 1% Survanta) was 0.5 µg/mL (≈ 0.345 µM), the MIC ([1]; read-out: MIC S. aureus ATCC 43300 MRSA, 5% Survanta) was 0.5 µg/mL (≈ 0.345 µM) and the MIC ([1]; read-out: MIC S. aureus ATCC 43300 MRSA, no added Survanta) was 0.5 µg/mL (≈ 0.345 µM). The MIC (S. pneumoniae ATCC 33400; read-out: MIC S. pneumoniae ATCC 33400, 1% Survanta) was 0.5 µg/mL (≈ 0.345 µM), the MIC (S. pneumoniae ATCC 33400; read-out: MIC S. pneumoniae ATCC 33400, 5% Survanta) was 0.5 µg/mL (≈ 0.345 µM) and the MIC (S. pneumoniae ATCC 33400; read-out: MIC S. pneumoniae ATCC 33400, no added Survanta) was 0.5 µg/mL (≈ 0.345 µM). It also gave an MIC ([2]; read-out: MIC S. pneumoniae ATCC 700677 MDR, 1% Survanta) of 0.5 µg/mL (≈ 0.345 µM), an MIC ([2]; read-out: MIC S. pneumoniae ATCC 700677 MDR, 5% Survanta) of 0.5 µg/mL (≈ 0.345 µM) and an MIC ([2]; read-out: MIC S. pneumoniae ATCC 700677 MDR, no added Survanta) of 0.5 µg/mL (≈ 0.345 µM). For the same compound, the “Change in bioluminescence signal (total flux) after inoculation” value [3] was “progressive reduction in the bioluminescence signal”, the remaining at 1 h, 20 µM (in vitro) was 100% and the remaining at 3 h, 20 µM (in vitro) was 87%. The remaining at 6 h, 20 µM (in vitro) was 91% and the remaining at 24 h, 20 µM (in vitro) was 63%.
